For 33 compounds, IC50 results are on record in US9643970B2, “Substituted imidazo [1,5-a]pyrazines as PDE9 inhibitors” (H Lundbeck A/S, priority 2012, dated 2017).

This assay deals with PDE9 (Homo sapiens, UniProt O76083). As to the kind of experiment: PDE9 inhibition assay. It is filed as biochemical. Here is the method:
Reactions are initiated by addition of the cyclic nucleotide substrate, and reactions are allowed to proceed for one hr at room temperature before being terminated through mixing with 15 uL 8 mg/mL yttrium silicate SPA beads (Amersham). […] IC50 values were calculated by non linear regression using XLfit (IDBS).

[1] abbreviates: SPA assay, 10 nM 3H-cAMP, 1 hour incubation, read-out: IC50.

pIC50: −log10 of the molar value. Read-outs that look alike come from different tables or passages of the source.

Chain of PDE9 (O76083 whole entry): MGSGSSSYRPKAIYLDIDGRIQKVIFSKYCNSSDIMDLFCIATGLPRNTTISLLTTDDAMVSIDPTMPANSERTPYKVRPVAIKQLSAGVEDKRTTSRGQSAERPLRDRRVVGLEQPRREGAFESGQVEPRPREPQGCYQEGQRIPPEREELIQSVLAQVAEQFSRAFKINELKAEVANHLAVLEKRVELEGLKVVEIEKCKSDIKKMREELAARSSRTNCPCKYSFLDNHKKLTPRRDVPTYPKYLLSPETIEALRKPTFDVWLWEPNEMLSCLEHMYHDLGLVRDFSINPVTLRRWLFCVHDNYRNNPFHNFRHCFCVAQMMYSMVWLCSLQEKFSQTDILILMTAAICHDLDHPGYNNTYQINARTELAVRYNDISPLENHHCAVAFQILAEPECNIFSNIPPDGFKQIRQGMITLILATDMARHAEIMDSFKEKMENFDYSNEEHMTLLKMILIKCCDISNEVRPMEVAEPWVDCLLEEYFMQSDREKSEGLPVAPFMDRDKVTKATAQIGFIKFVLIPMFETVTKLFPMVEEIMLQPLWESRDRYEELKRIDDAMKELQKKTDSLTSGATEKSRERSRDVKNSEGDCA

On to `CC1CN(Cc2ccc(F)cc2)CC1c1cn2c(C3CCOCC3)ncc2c(=O)[nH]1` (stereo not drawn) [Compound 89, 6-[1-[(4-fluorophenyl)methyl]-4-methyl-pyrrolidin-3-yl]-3-tetrahydropyran-4-yl-7h-imidazo[1,5-a]pyrazin-8-one], for which the negative logarithm of the IC50 (pIC50) – broadly, the IC50 on a negative log10 scale, so that one unit is a factor of ten – under setting [1] was 8.15. The same measure, in the same setting: the value for `CC1CN(Cc2ncccn2)CC1c1cn2c(C3CCOCC3)ncc2c(=O)[nH]1` (stereo not drawn) [Compound 90, 6-[4-methyl-1-(pyrimidin-2-ylmethyl)pyrrolidin-3-yl]-3-tetrahydropyran-4-yl-7h-imidazo[1,5-a]pyrazin-8-one] was 7.72. On to `CC(c1cn2c(C3CCOCC3)ncc2c(=O)[nH]1)N1CC(c2ncccn2)C1` (stereo not drawn) [Compound 91, 6-[1-(3-pyrimidin-2-ylazetidin-1-yl)ethyl]-3-tetrahydropyran-4-yl-7h-imidazo[1,5-a]pyrazin-8-one], for which, under setting [1], the pIC50 is 7.34.

The compound `N#Cc1ccc(OC2CN(Cc3cn4c(-c5ccc(F)cc5)ncc4c(=O)[nH]3)C2)cc1` [Compound 92, 4-[1-[[3-(4-fluorophenyl)-8-oxo-7h-imidazo[1,5-a]pyrazin-6-yl]methyl]azetidin-3-yl]oxybenzonitrile] had a pIC50 of 7.12.

For the compound `N#Cc1cccc(OC2CN(Cc3cn4c(-c5ccc(F)cc5)ncc4c(=O)[nH]3)C2)c1` [Compound 93, 3-[1-[[3-(4-fluorophenyl)-8-oxo-7h-imidazo[1,5-a]pyrazin-6-yl]methyl]azetidin-3-yl]oxybenzonitrile], the pIC50 under setting [1] is 7.74. `N#Cc1cccc(OC2CN(Cc3cn4c(C5CCOCC5)ncc4c(=O)[nH]3)C2)c1` [Compound 94, 3-[1-[(8-oxo-3-tetrahydropyran-4-yl-7h-imidazo[1,5-a]pyrazin-6-yl)methyl]azetidin-3-yl]oxybenzonitrile] showed a pIC50 of 7.92. As to `O=c1[nH]c(CN2CC(Oc3cccc(C(F)(F)F)c3)C2)cn2c(-c3ccc(F)cc3)ncc12` [Compound 95, 3-(4-fluorophenyl)-6-[[3-[3-(trifluoromethyl)phenoxy]azetidin-1-yl]methyl]-7h-imidazo[1,5-a]pyrazin-8-one], the negative logarithm of the IC50 (pIC50) is 7.01. Compound `N#Cc1ccc(C2CN(Cc3cn4c(-c5ccc(F)cc5)ncc4c(=O)[nH]3)C2)cc1` [Compound 96, 4-[1-[[3-(4-fluorophenyl)-8-oxo-7h-imidazo[1,5-a]pyrazin-6-yl]methyl]azetidin-3-yl]benzonitrile] showed a pIC50 of 8.70. As to `CC1CN(Cc2ccc3nccnc3c2)CC1c1cn2c(C3CCOCC3)ncc2c(=O)[nH]1` (stereo not drawn) [Compound 97, 6-[4-methyl-1-(quinoxalin-6-ylmethyl)pyrrolidin-3-yl]-3-tetrahydropyran-4-yl-7h-imidazo[1,5-a]pyrazin-8-one], under setting [1], the pIC50 is 8.40. Same read-out and setting: with `CC1CN(Cc2ccc(C#N)cc2)CC1c1cn2c(C3CCOCC3)ncc2c(=O)[nH]1` (stereo not drawn) [Compound 98, 4-[[3-methyl-4-(8-oxo-3-tetrahydropyran-4-yl-7h-imidazo[1,5-a]pyrazin-6-yl)pyrrolidin-1-yl]methyl]benzonitrile] the figure was 7.74.

Turning to `CC1CN(Cc2ccc(F)cc2)CC1c1cn2c(-c3ccc(F)cc3)ncc2c(=O)[nH]1` (stereo not drawn) [Compound 99, 3-(4-fluorophenyl)-6-[1-[(4-fluorophenyl)methyl]-4-methyl-pyrrolidin-3-yl]-7h-imidazo[1,5-a]pyrazin-8-one], the pIC50 under setting [1] is 7.77. For `CC1CN(Cc2ccc(F)cc2)CC1c1cn2c(-c3ccc(F)cc3)nc(Br)c2c(=O)[nH]1` (stereo not drawn) [Compound 100, 1-bromo-3-(4-fluorophenyl)-6-[1-[(4-fluorophenyl)methyl]-4-methyl-pyrrolidin-3-yl]-7h-imidazo[1,5-a]pyrazin-8-one], under setting [1], the negative-log IC50 (pIC50) was 8.40.

Consider `COc1ccc(CN2CC(C)C(c3cn4c(C5CCOCC5)ncc4c(=O)[nH]3)C2)cn1` (stereo not drawn) [Compound 101, 6-[1-[(6-methoxy-3-pyridyl)methyl]-4-methyl-pyrrolidin-3-yl]-3-tetrahydropyran-4-yl-7h-imidazo[1,5-a]pyrazin-8-one], for which, under setting [1], the negative-log IC50 (pIC50) was 7.74. The same measure, in the same setting: the value for `Cc1cnc(CN2CC(C)C(c3cn4c(C5CCOCC5)ncc4c(=O)[nH]3)C2)cn1` (stereo not drawn) [Compound 102, 6-[4-methyl-1-[(5-methylpyrazin-2-yl)methyl]pyrrolidin-3-yl]-3-tetrahydropyran-4-yl-7h-imidazo[1,5-a]pyrazin-8-one] was 8.00; that for `N#Cc1ccc(C2CN(Cc3cn4c(C5CCOCC5)ncc4c(=O)[nH]3)C2)cc1` [Compound 106, 4-[1-[(8-oxo-3-tetrahydropyran-4-yl-7h-imidazo[1,5-a]pyrazin-6-yl)methyl]azetidin-3-yl]benzonitrile] was 7.49; that for `N#Cc1cccc(C2CN(Cc3cn4c(C5CCOCC5)ncc4c(=O)[nH]3)C2)c1` [Compound 107, 3-[1-[(8-oxo-3-tetrahydropyran-4-yl-7h-imidazo[1,5-a]pyrazin-6-yl)methyl]azetidin-3-yl]benzonitrile] was 7.46.

As to `O=c1[nH]c(CN2CC(OCc3ccc(Cl)cc3)C2)cn2c(-c3ccc(F)cc3)ncc12` [Compound 108, 6-[[3-[(4-chlorophenyl)methoxy]azetidin-1-yl]methyl]-3-(4-fluorophenyl)-7h-imidazo[1,5-a]pyrazin-8-one], the pIC50 under setting [1] is 7.47. Same read-out and setting: the value for `O=c1[nH]c(CN2CC(Oc3ccc(C(F)(F)F)cc3)C2)cn2c(-c3ccc(F)cc3)ncc12` [Compound 109, 3-(4-fluorophenyl)-6-[[3-[4-(trifluoromethyl)phenoxy]azetidin-1-yl]methyl]-7h-imidazo[1,5-a]pyrazin-8-one] was 7.55; that for `CC1CN(Cc2ccc(F)cc2)CC1c1cn2c(-c3ccc(Cl)cc3)ncc2c(=O)[nH]1` (stereo not drawn) [Compound 110, 3-(4-chlorophenyl)-6-[1-[(4-fluorophenyl)methyl]-4-methyl-pyrrolidin-3-yl]-7h-imidazo[1,5-a]pyrazin-8-one] was 7.44; that for `CC1CN(Cc2ccc(F)cc2)CC1c1cn2c(-c3ccc(Cl)cc3)nc(Br)c2c(=O)[nH]1` (stereo not drawn) [Compound 111, 1-bromo-3-(4-chlorophenyl)-6-[1-[(4-fluorophenyl)methyl]-4-methyl-pyrrolidin-3-yl]-7h-imidazo[1,5-a]pyrazin-8-one] was 7.13. In the case of `COC1CN(C(C)C2(C)Cn3c(cnc3C3CCOCC3)C(=O)N2)C1` (stereo not drawn) [Compound 112, 6-[1-(3-methoxyazetidin-1-yl)ethyl]-6-methyl-3-tetrahydropyran-4-yl-7h-imidazo[1,5-a]pyrazin-8-one], the pIC50 under setting [1] was 7.66.

With `Cc1ccc(COC2CN(Cc3cn4c(-c5ccc(F)cc5)ncc4c(=O)[nH]3)C2)cc1` [Compound 113, 3-(4-fluorophenyl)-6-[[3-(p-tolylmethoxy)azetidin-1-yl]methyl]-7h-imidazo[1,5-a]pyrazin-8-one], the negative logarithm of the IC50 (pIC50) under setting [1] was 8.05.

As to `CC1CN(Cc2ccccn2)CC1c1cn2c(-c3ccc(F)cc3)ncc2c(=O)[nH]1` (stereo not drawn) [Compound 114, 3-(4-fluorophenyl)-6-[4-methyl-1-(2-pyridylmethyl)pyrrolidin-3-yl]-7h-imidazo[1,5-a]pyrazin-8-one], the pIC50 under setting [1] is 8.15. Same read-out and setting: the value for `CC1CN(CC2CCCCC2)CC1c1cn2c(C3CCOCC3)ncc2c(=O)[nH]1` (stereo not drawn) [Compound 115, 6-[1-(cyclohexylmethyl)-4-methyl-pyrrolidin-3-yl]-3-tetrahydropyran-4-yl-7h-imidazo[1,5-a]pyrazin-8-one] was 7.43.

Regarding `CC(C)OC1CN(C(C)c2cn3c(-c4ccc(F)cc4)ncc3c(=O)[nH]2)C1` (stereo not drawn) [Compound 116, 3-(4-fluorophenyl)-6-[1-(3-isopropoxyazetidin-1-yl)ethyl]-7h-imidazo[1,5-a]pyrazin-8-one], the pIC50 was 7.66. Consider `CC(C)OC1CN(C(C)c2cn3c(C4CCOCC4)ncc3c(=O)[nH]2)C1` (stereo not drawn) [Compound 117, 6-[1-(3-isopropoxyazetidin-1-yl)ethyl]-3-tetrahydropyran-4-yl-7h-imidazo[1,5-a]pyrazin-8-one], for which the pIC50 is 7.03. On to `O=c1[nH]c(CN2CC(Oc3ccc(Cl)cc3)C2)cn2c(-c3ccc(F)cc3)ncc12` [Compound 118, 6-[[3-(4-chlorophenoxy)azetidin-1-yl]methyl]-3-(4-fluorophenyl)-7h-imidazo[1,5-a]pyrazin-8-one], for which the pIC50 under setting [1] is 7.38. The same measure, in the same setting: with `CC1CN(Cc2ccc(F)cc2)CC1c1cn2c(-c3ccc(OC(F)(F)F)cc3)ncc2c(=O)[nH]1` (stereo not drawn) [Compound 119, 6-[1-[(4-fluorophenyl)methyl]-4-methyl-pyrrolidin-3-yl]-3-[4-(trifluoromethoxy)phenyl]-7h-imidazo[1,5-a]pyrazin-8-one] the figure was 6.72; with `CC(c1cn2c(-c3ccc(F)cc3)ncc2c(=O)[nH]1)N1CC(Oc2ccc(OC(F)(F)F)cc2)C1` (stereo not drawn) [Compound 120, 3-(4-fluorophenyl)-6-[1-[3-[4-(trifluoromethoxy)phenoxy]azetidin-1-yl]ethyl]-7h-imidazo[1,5-a]pyrazin-8-one], 7.46; with `O=c1[nH]c(CN2CC(Oc3c(F)cccc3F)C2)cn2c(-c3ccc(F)cc3)ncc12` [Compound 121, 6-[[3-(2,6-difluorophenoxy)azetidin-1-yl]methyl]-3-(4-fluorophenyl)-7h-imidazo[1,5-a]pyrazin-8-one], 7.39. As to `COc1ccc(C2CN(Cc3cn4c(-c5cc(F)cc(F)c5)ncc4c(=O)[nH]3)C2)cc1` [Compound 122, 3-(3,5-difluorophenyl)-6-[[3-(4-methoxyphenyl)azetidin-1-yl]methyl]-7h-imidazo[1,5-a]pyrazin-8-one], the negative logarithm of the IC50 (pIC50) is 7.42. On to `COc1ccc(C2CN(Cc3cn4c(-c5ccc(F)cc5)ncc4c(=O)[nH]3)C2)cc1` [Compound 123, 3-(4-fluorophenyl)-6-[[3-(4-methoxyphenyl)azetidin-1-yl]methyl]-7h-imidazo[1,5-a]pyrazin-8-one], for which the pIC50 is 7.24. On to `CC(c1cn2c(-c3ccc(F)cc3)ncc2c(=O)[nH]1)N1CC(c2ccc(F)cc2)C1` (stereo not drawn) [Compound 124, 3-(4-fluorophenyl)-6-[1-[3-(4-fluorophenyl)azetidin-1-yl]ethyl]-7h-imidazo[1,5-a]pyrazin-8-one], for which, under setting [1], the negative-log IC50 (pIC50) is 7.14.
